In US8980614B2, “Staphylococcus haemolyticus prophage φSH2 endolysin is lytic for Staphylococcus aureus” (The United States of America, as represented by The …, priority 2012, dated 2015):

Tested on: MRSA strain NRS382
Assay: Control of systemic MRSA infection in a murine model
Assay type: in vivo, Balb/c mice
[1] = 0 hours, mice infected i.p. with MRSA NRS382, treated 30 min post infection (φSH2 200 μg/mouse i.p.; Vancomycin 375 μg/mouse s.c.; Oxacillin 1250 μg/mouse s.c.)
[2] = 4 hours, same infection and treatment
[3] = 8 hours, same infection and treatment
[4] = 12 hours, same infection and treatment
[5] = 16 hours, same infection and treatment
[6] = 20 hours, same infection and treatment
[7] = 24 hours, same infection and treatment
[8] = 28 hours, same infection and treatment
[9] = 32 hours, same infection and treatment
[10] = 36 hours, same infection and treatment
[11] = 40 hours, same infection and treatment
[12] = 44 hours, same infection and treatment

| SMILES | % Survival [1] | % Survival [2] | % Survival [3] | % Survival [4] | % Survival [5] | % Survival [6] | % Survival [7] | % Survival [8] | % Survival [9] | % Survival [10] | % Survival [11] | % Survival [12] | survival rate (after 16 to 20 hours, Oxacillin 1250 μg/mouse s.c. 30 min post infection) | % Survival (48 hours (end of the experiment), same infection and treatment) |
| --- | --- | --- | --- | --- | --- | --- | --- | --- | --- | --- | --- | --- | --- | --- |
| Cc1onc(-c2ccccc2)c1C(=O)N[C@@H]1C(=O)N2[C@@H]1SC(C)(C)[C@@H]2C(=O)O [Oxacillin] | 100% | 100% | 100% | 100% | 100% | 40% | 40% | 30% | 30% | 30% | 30% | 30% | less than 40% | – |
| CN[C@H](CC(C)C)C(=O)N[C@H]1C(=O)N[C@@H](CC(N)=O)C(=O)N[C@H]2C(=O)N[C@H]3C(=O)N[C@H](C(=O)N[C@H](C(=O)O)c4cc(O)cc(O)c4-c4cc3ccc4O)[C@H](O)c3ccc(c(Cl)c3)Oc3cc2cc(c3O[C@@H]2O[C@H](CO)[C@@H](O)[C@H](O)[C@H]2O[C@H]2C[C@](C)(N)[C@H](O)[C@H](C)O2)Oc2ccc(cc2Cl)[C@H]1O [Vancomycin] | 100% | 100% | 100% | 100% | 100% | 100% | 100% | 100% | 100% | 100% | 100% | 100% | – | 100% |
